Assay results taken from publication PMC6001580, “Synthesis and molecular modelling studies of pyrimidinones and pyrrolo[3,4-d]-pyrimidinodiones as new antiplasmodial compounds” (Memórias do Instituto Oswaldo Cruz, 2018).
Several values for one entry are separate records, joined by “and”; a condition that tells them apart may be missing. Equal values may be shown once. Read-outs that look alike come from different tables or passages of the source.

How the values were obtained:
[1] = tested on: BGM cells; test: Cytotoxicity evaluation on mammalian cells (MTT); assay type: cell-based; conditions: 24 h, mean of three experiments
Procedure: Cytotoxicity evaluation on mammalian cells - BGM cells (originally acquired from ATCC (American Type Culture Collection), Manassas, VA, USA by the Federal University of Minas Gerais, Brazil, and donated by Dr Antoniana Krettli - Federal University of Minas Gerais) were cultured in 75 cm^2 sterile ﬂasks containing RPMI 1640 medium supplemented with 10% foetal bovine serum (FBS) at a concentration of 5 x 10^3 cells per millilitre in a 5% CO2 atmosphere at 37 °C. Cells were added with the test compounds in serial dilution. When the cell monolayer was confluent, it was trypsinised, washed with a culture medium distributed in a flat-bottomed 96-well plate (1 × 10^5 cells/mL) and incubated for 24 h at 37 °C to ensure cell adherence. Then, the drugs were added in serial dilution (1000-15 µM) and incubated for 24 h at 37 °C. Subsequently, the MTT salt, in a concentration of 3 mg/mL, was added after 3 h; then, the supernatant was removed, and the dye present on the bottom of the plate wells was dissolved in DMSO in a volume of 100 µL/well DMSO. The microplates were then read in an Espectramax 190 (Molecular Devices, USA) spectrophotometer, using the 570 nm filter. The determination of MDL50 was performed using a dose response curves nonlinear regression function ([Denizot and Lang 1986]).

[2] = tested on: chloroquine-resistant Plasmodium falciparum W2 strain; test: Antiplasmodial in vitro assay (HRPII sandwich ELISA, 72 h); assay type: cell-based; conditions: for IC50: Plasmodium falciparum, W2, 72 h; for SI (selectivity index): SI = MDL50 / IC50 (BGM cells vs P. falciparum W2)
Text: Antiplasmodial in vitro assay - The cultivation of P. falciparum W2 strain (originating from Indochina and cultivated in the Malaria Research Laboratory, Oswaldo Cruz Foundation-Fiocruz), which is chloroquine-resistant, was made according to the protocol of [Trager and Jensen (1976)], using human erythrocytes (A^+) in an RPMI 1640 medium supplemented with human serum. Parasites were synchronised to obtain the young (ring) parasite forms ([Lambros and Vanderberg 1979]). Parasitaemia was adjusted to 0.05% and haematocrit to 1.5%. Subsequently, the cultures were placed in microplates with the drugs, previously diluted in dimethyl sulphoxide and medium (DMSO 0.02% v/v), to be tested in serial dilutions (50 - 0.78 µM), as well as positive controls (chloroquine in serial dilutions; 10 - 0.07 µM) and negative (no drug) controls. All the microplates were incubated for 72 h. The microplates were then subjected to three cycles of freezing and thawing; the parasite growth was measured through the quantification of histidine-rich protein II (HRPII) using specific monoclonal antibodies (MPFM ICLLAB-55A®, USA and MPFG55P ICLLAB®, USA) in sandwich ELISA ([Noedl et al. 2002]). Absorbance was read at 450 nm in an Espectramax 190 spectrophotometer (Molecular Devices, USA), and the determination of the IC50 was made using dose-response curves.

[3] = tested on: P. berghei ANKA expressing green fluorescent protein (PbA-GFP); test: In vivo activity evaluation against P. berghei (four-day test in mice); parameters: species or system Plasmodium berghei; conditions: Swiss mice, 30 mg/Kg orally for four consecutive days, vs untreated controls; for Reduction (%) of parasitaemia, Day eight: day eight after infection; for Reduction (%) of parasitaemia, Day five: day five after infection
Text: In vivo activity evaluation against P. berghei - Swiss mice (Institute of Science and Technology in Biomodels - Fiocruz) were inoculated with 10^5 erythrocytes infected with P. berghei ANKA expressing green fluorescent protein (PbA-GFP, a donation from the malaria research and reference reagent resource centre -MR4, Manassas, VA; deposited by CJ Janse and AP Waters; MR4 number: MRA-865) intraperitoneally (day 1 of the experiment). Three hours after inoculation, the animals were randomly divided into five groups of mice. […] All of the test compounds and chloroquine were administered at a dose of 30 mg/kg, orally by gavage for four consecutive days. On days 5 and 8 after infection, flow cytometry was used to detect and count the number of parasitised red blood cells (RBC) that expressed GFP in relation to 10,000 RBCs, thus assessing the evolution of parasitaemia. […] The antimalarial activity was determined by the percentage reduction in parasitaemia of treated animals compared to untreated controls ([Peters et al. 1975]).

[4] = Hemolysis assay; assay type: cell-based; conditions: erythrocyte suspension (1% haematocrit), at 1000 μM, 37 °C, read-out: haemolysis
Procedure: Hemolysis assay - The haemolysis assay was performed according to the protocol described by [Wang et al. (2010)]. The compounds were dissolved in DMSO (0.5% v/v). Suspensions of erythrocytes (1% haematocrit) were incubated with the compounds at serial dilutions ranging from 15 to 1000 µM, at 37 °C for 30 min with a constant stirring. A 0.05% solution of saponin (Sigma-Aldrich) was used as a positive control of the test as it generated 100% haemolysis, and the suspension of erythrocytes in the medium was used as a negative control (blank). Following incubation, suspensions were centrifuged at 1000 g for 10 min, and the absorbance of the supernatants was measured at 540 nm using an Espectramax 190 spectrophotometer. The haemolysis rate of the samples was calculated as follows: % haemolysis = (sample absorbance - blank absorbance) x 100 / absorbance of the control with saponin.

[5] = P. falciparum W2 strain, 72 h, HRPII ELISA, mean of three experiments, read-out: IC50

Row | Structure (SMILES) | MDL50 [1] | IC50 [2, 5] [µM] | SI (selectivity index) [2] | Reduction (%) of parasitaemia, Day eight [3] [%] | Reduction (%) of parasitaemia, Day five [3] [%] | hemolysis at 30 min, 1000 µM [4] [%] | IC50 [2] [µM]
1 | CCOC(=O)C1=C(CCl)NC(=O)NC1c1ccccc1 (centres unmarked) [1a] | 24.6 ± 0.03 µM | 6.38 ± 0.8 | 3.9 |  |  |  | 
2 | CCOC(=O)C1=C(CCl)NC(=O)NC1c1ccc(OC)cc1 (centres unmarked) [1b] | 57 µM and 57 ± 0.65 µM |  | 19 | 33.8 | 0 |  | 
3 | CCOC(=O)C1=C(CCl)NC(=O)NC1c1cccc(Br)c1 (centres unmarked) [1c] | 21.7 ± 1.24 µM | 6.17 ± 0.02 | 3.5 |  |  |  | 
4 | CCOC(=O)C1=C(CCl)NC(=O)NC1c1ccc(Cl)cc1 (centres unmarked) [1d] | 2.5 ± 0.93 µM | 1.96 ± 0.21 | 1.3 |  |  | 3.6 | 
5 | CCOC(=O)C1=C(CCl)NC(=O)NC1c1ccccc1OC (centres unmarked) [1e] | 23.8 ± 0.6 µM |  | 1.95 |  |  |  | 
6 | CCOC(=O)C1=C(CCl)NC(=O)NC1c1ccc(Br)cc1 (centres unmarked) [1f] | 22 µM and 22 ± 0.56 µM | 1.76 ± 0.27 | 12.5 | 60.9 | 9.1 | 0.95 | 
7 | CCOC(=O)C1=C(CCl)NC(=O)NC1c1cc(OC)c(OC)c(OC)c1 (centres unmarked) [1g] | 21.7 ± 1.15 µM | 24.1 ± 1.2 | 0.9 |  |  |  | 
8 | CCOC(=O)C1=C(CCl)NC(=O)NC1c1ccccc1Cl (centres unmarked) [1h] | 77 µM and 77 ± 0.87 µM | 3.12 ± 0.06 | 24.6 | 55.2 | 0 |  | 
9 | CCOC(=O)C1=C(CCl)NC(=O)NC1c1ccc(OC)cc1OC (centres unmarked) [1i] | 9.7 ± 0.46 µM | 2.98 ± 0.18 | 3.3 |  |  |  | 
10 | CCOC(=O)C1=C(CCl)NC(=O)NC1c1ccc([N+](=O)[O-])cc1 (centres unmarked) [1j] | 26.2 ± 1.1 µM | 6 ± 0.8 | 4.4 |  |  |  | 
11 | CCOC(=O)C1=C(CCl)NC(=O)NC1c1ccc(OC)c(OC)c1 (centres unmarked) [1k] | 24.5 ± 0.09 µM | 3 ± 0.25 | 8.2 |  |  |  | 
12 | CCOC(=O)C1=C(CCl)NC(=O)NC1c1ccc(O)c(OC)c1 (centres unmarked) [1l] |  | 3 |  |  |  |  | 
13 | O=C1NC2=C(C(=O)N(CCc3ccccc3)C2)C(c2ccccc2)N1 (centres unmarked) [2a] | > 100 µM | > 50 |  |  |  |  | 
14 | COc1ccc(C2NC(=O)NC3=C2C(=O)N(CCc2ccccc2)C3)cc1 (centres unmarked) [2b] | 24.6 ± 1.23 µM | 26.4 ± 0.26 | 0.93 |  |  | 21.7 | 
15 | O=C1NC2=C(C(=O)N(CCc3ccccc3)C2)C(c2cccc(Br)c2)N1 (centres unmarked) [2c] | 6.9 ± 0.97 µM | > 50 |  |  |  | 12.3 | 
16 | COc1ccccc1C1NC(=O)NC2=C1C(=O)N(CCc1ccccc1)C2 (centres unmarked) [2e] | 56 ± 1.83 µM | 22 ± 0.08 | 2.5 |  |  |  | 

Row | Structure (SMILES) | MDL50 [1] | IC50 [2, 5] [µM] | SI (selectivity index) [2] | Reduction (%) of parasitaemia, Day eight [3] [%] | Reduction (%) of parasitaemia, Day five [3] [%] | hemolysis at 30 min, 1000 µM [4] [%] | IC50 [2] [µM]
17 | O=C1NC2=C(C(=O)N(CCc3ccccc3)C2)C(c2ccc(Br)cc2)N1 (centres unmarked) [2f] | 18.6 ± 1.21 µM | > 50 |  |  |  | 22.6 | 
18 | COc1cc(C2NC(=O)NC3=C2C(=O)N(CCc2ccccc2)C3)cc(OC)c1OC (centres unmarked) [2g] | 6.2 ± 0.73 µM | > 50 | < 0.1 |  |  |  | 
19 | O=C1NC2=C(C(=O)N(CCc3ccccc3)C2)C(c2ccccc2Cl)N1 (centres unmarked) [2h] | > 100 µM | > 50 |  |  |  |  | 
20 | O=C1NC2=C(C(=O)N(CCc3ccccc3)C2)C(c2ccc([N+](=O)[O-])cc2)N1 (centres unmarked) [2j] | 8.9 ± 0.9 µM | 25.6 ± 0.09 | 0.4 |  |  |  | 
21 | O=C1NC2=C(C(=O)N(Cc3ccccc3)C2)C(c2ccccc2)N1 (centres unmarked) [3a] | > 100 µM | > 50 |  |  |  |  | 
22 | COc1ccc(C2NC(=O)NC3=C2C(=O)N(Cc2ccccc2)C3)cc1 (centres unmarked) [3b] | > 100 µM | > 50 |  |  |  |  | 
23 | O=C1NC2=C(C(=O)N(Cc3ccccc3)C2)C(c2ccc(Cl)cc2)N1 (centres unmarked) [3d] | 86 ± 1.27 µM | 45 ± 0.79 | 1.9 |  |  |  | 
24 | COc1ccccc1C1NC(=O)NC2=C1C(=O)N(Cc1ccccc1)C2 (centres unmarked) [3e] | > 100 µM | > 50 |  |  |  |  | 
25 | O=C1NC2=C(C(=O)N(Cc3ccccc3)C2)C(c2ccc(Br)cc2)N1 (centres unmarked) [3f] | > 100 µM | 26 ± 1.15 | > 3.8 |  |  |  | 
26 | COc1cc(C2NC(=O)NC3=C2C(=O)N(Cc2ccccc2)C3)cc(OC)c1OC (centres unmarked) [3g] | > 100 µM | > 50 |  |  |  |  | 
27 | O=C1NC2=C(C(=O)N(Cc3ccccc3)C2)C(c2ccccc2Cl)N1 (centres unmarked) [3h] | > 100 µM | 26.7 ± 0.56 | > 3.8 |  |  |  | 
28 | COc1ccc(C2NC(=O)NC3=C2C(=O)N(Cc2ccccc2)C3)c(OC)c1 (centres unmarked) [3i] | > 100 µM | > 50 |  |  |  |  | 
29 | O=C1NC2=C(C(=O)N(Cc3ccccc3)C2)C(c2ccc([N+](=O)[O-])cc2)N1 (centres unmarked) [3j] | > 100 µM | > 50 |  |  |  |  | 
30 | COc1ccc(C2NC(=O)NC3=C2C(=O)N(Cc2ccccc2)C3)cc1OC (centres unmarked) [3k] | > 100 µM | > 50 |  |  |  |  | 
31 | CCN(CC)CCCC(C)Nc1ccnc2cc(Cl)ccc12 (centres unmarked) [Chloroquine, reference compound] |  |  |  | 100 | 97.2 |  | 0.55 ± 0.09
